Data from paper PMC10599993, “The PTPN2/PTPN1 inhibitor ABBV-CLS-484 unleashes potent anti-tumour immunity” (Nature, 2023).
pIC50: −log10 of the molar value.

Tests used:
[1] = target: T1, PTPN1 (Homo sapiens, UniProt P18031); experiment: mobility shift enzyme assay with labelled insulin receptor phosphopeptide; type: biochemical
T1 construct: full-length recombinant

[2] = target: T2, PTPN2 (Homo sapiens, UniProt P17706); experiment: as above; type: biochemical
T2 construct: full-length recombinant
T2 sequence (P17706 whole entry): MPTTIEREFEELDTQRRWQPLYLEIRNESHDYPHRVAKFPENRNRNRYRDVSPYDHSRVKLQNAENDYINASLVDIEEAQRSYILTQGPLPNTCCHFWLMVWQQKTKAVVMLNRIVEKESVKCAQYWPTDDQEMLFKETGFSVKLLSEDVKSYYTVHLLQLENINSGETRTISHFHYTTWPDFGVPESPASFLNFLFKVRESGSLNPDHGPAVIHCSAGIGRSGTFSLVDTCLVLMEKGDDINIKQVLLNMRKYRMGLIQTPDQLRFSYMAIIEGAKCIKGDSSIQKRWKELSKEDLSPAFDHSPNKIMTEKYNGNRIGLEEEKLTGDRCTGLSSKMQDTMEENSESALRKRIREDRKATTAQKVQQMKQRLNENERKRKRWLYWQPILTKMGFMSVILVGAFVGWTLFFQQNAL

T1 sequence (P18031 whole entry): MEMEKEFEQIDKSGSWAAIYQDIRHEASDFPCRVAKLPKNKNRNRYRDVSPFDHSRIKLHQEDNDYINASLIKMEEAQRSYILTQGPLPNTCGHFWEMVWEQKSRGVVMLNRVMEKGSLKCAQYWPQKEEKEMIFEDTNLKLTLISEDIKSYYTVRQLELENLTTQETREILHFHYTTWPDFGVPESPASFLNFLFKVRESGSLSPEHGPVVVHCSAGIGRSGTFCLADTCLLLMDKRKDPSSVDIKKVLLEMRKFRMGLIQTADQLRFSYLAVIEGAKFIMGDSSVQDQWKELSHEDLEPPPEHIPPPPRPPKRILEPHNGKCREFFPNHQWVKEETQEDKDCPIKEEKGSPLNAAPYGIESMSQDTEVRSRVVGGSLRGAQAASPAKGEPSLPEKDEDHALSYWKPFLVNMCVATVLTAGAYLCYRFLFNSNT

pIC50 [1]: 8.55
pIC50 [2]: 8.41
Structure (SMILES): O=C1CN(c2c(O)cc3ccc(NCC4CC4)cc3c2F)S(=O)(=O)N1 [A-650]
